Reference: patent US12077503B2, “Substituted cyclic amides and their use as herbicides” (FMC CORPORATION, priority 2015, dated 2024)

How the values were obtained:
Format in all cases: in vivo
Kochia (Kochia scoparia) [1] = test: Test A preemergence; conditions: Bassia scoparia, pre-emergence, 240 h, 0 to 100 scale where 0 is no effect and 100 is complete control, read-out: Kochia plant response rating; for pest or weed control at 31 g/ha: 31 g ai/ha, Preemergence; for pest or weed control at 125 g/ha: 125 g ai/ha, preemergence, approx. 10 d
In short: (§1)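 Compounds were formulated in a non-phytotoxic solvent mixture with surfactant and applied as a preemergence directed soil spray after seeding, or sprayed postemergence over plants 2 to 10 cm tall at the one- to two-leaf stage. Evaluation after about 10 d compared treated with untreated controls, using a scale from 0 (no effect) to 100 (complete control).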

[2] = system: barnyardgrass (Echinochloa crus-galli); test: Test A preemergence; conditions: Echinochloa crus-galli, pre-emergence, 240 h, 0 to 100 scale where 0 is no effect and 100 is complete control, read-out: Barnyardgrass plant response rating; for pest or weed control at 31 g/ha: 31 g ai/ha, Preemergence; for pest or weed control at 125 g/ha: 125 g ai/ha, preemergence, approx. 10 d
In short: as §1

[3] = system: giant foxtail (Setaria faberii); test: Test A preemergence; conditions: Setaria faberi, pre-emergence, 240 h, 0 to 100 scale where 0 is no effect and 100 is complete control, read-out: Foxtail, Giant plant response rating; for pest or weed control at 31 g/ha: 31 g ai/ha, Preemergence; for pest or weed control at 125 g/ha: 125 g ai/ha, preemergence, approx. 10 d
In short: as §1

[4] = system: pigweed (Amaranthus retroflexus); test: Test A preemergence; conditions: Amaranthus retroflexus, pre-emergence, 240 h, 0 to 100 scale where 0 is no effect and 100 is complete control, read-out: Pigweed plant response rating; for pest or weed control at 31 g/ha: 31 g ai/ha, Preemergence; for pest or weed control at 125 g/ha: 125 g ai/ha, preemergence, approx. 10 d
[5] = system: ragweed (common ragweed, Ambrosia elatior); test: Test A preemergence; conditions: Ambrosia artemisiifolia, pre-emergence, 240 h, 0 to 100 scale where 0 is no effect and 100 is complete control, read-out: Ragweed plant response rating; for pest or weed control at 31 g/ha: 31 g ai/ha, Preemergence; for pest or weed control at 125 g/ha: 125 g ai/ha, preemergence, approx. 10 d
In short: as §1

[6] = system: ryegrass, Italian (Italian ryegrass, Lolium multiflorum); test: Test A preemergence; conditions: Lolium multiflorum, pre-emergence, 240 h, 0 to 100 scale where 0 is no effect and 100 is complete control, read-out: Ryegrass, Italian plant response rating; for pest or weed control at 31 g/ha: 31 g ai/ha, Preemergence; for pest or weed control at 125 g/ha: 125 g ai/ha, preemergence, approx. 10 d
In short: as §1

[7] = system: Galium (catchweed bedstraw, Galium aparine); test: Test A postemergence; conditions: Galium, post-emergence, 240 h; for pest or weed control at 125 g/ha: 125 g ai/ha, postemergence, visual injury vs untreated controls after approx. 10 d, 0 = no effect, 100 = complete control, read-out: Galium plant response rating (0 to 100 scale); for pest or weed control at 31 g/ha: Postemergence, 31 g ai/ha, visual injury after approx. 10 d, 0 to 100 scale, 0 no effect, 100 complete control, read-out: Plant response rating, Galium
In short: as §1

Kochia (Kochia scoparia) [8] = test: Test A postemergence; conditions: Bassia scoparia, post-emergence, 240 h; for pest or weed control at 125 g/ha: 125 g ai/ha, postemergence, visual injury vs untreated controls after approx. 10 d, 0 = no effect, 100 = complete control, read-out: Kochia plant response rating (0 to 100 scale); for pest or weed control at 31 g/ha: Postemergence, 31 g ai/ha, visual injury after approx. 10 d, 0 to 100 scale, 0 no effect, 100 complete control, read-out: Plant response rating, Kochia
In short: as §1

[9] = system: barnyardgrass (Echinochloa crus-galli); test: Test A postemergence; conditions: Echinochloa crus-galli, post-emergence, 240 h; for pest or weed control at 125 g/ha: 125 g ai/ha, postemergence, visual injury vs untreated controls after approx. 10 d, 0 = no effect, 100 = complete control, read-out: Barnyardgrass plant response rating (0 to 100 scale); for pest or weed control at 31 g/ha: Postemergence, 31 g ai/ha, visual injury after approx. 10 d, 0 to 100 scale, 0 no effect, 100 complete control, read-out: Plant response rating, Barnyardgrass
In short: as §1

[10] = system: blackgrass (Alopecurus myosuroides); test: Test A postemergence; conditions: Alopecurus myosuroides, post-emergence, 240 h; for pest or weed control at 125 g/ha: 125 g ai/ha, postemergence, visual injury vs untreated controls after approx. 10 d, 0 = no effect, 100 = complete control, read-out: Blackgrass plant response rating (0 to 100 scale); for pest or weed control at 31 g/ha: Postemergence, 31 g ai/ha, visual injury after approx. 10 d, 0 to 100 scale, 0 no effect, 100 complete control, read-out: Plant response rating, Blackgrass
In short: as §1

corn (Zea mays) = test: Test A postemergence; conditions: Zea mays, post-emergence, 240 h; for plant injury at 125 g/ha: 125 g ai/ha, postemergence, visual injury vs untreated controls after approx. 10 d, 0 = no effect, 100 = complete control, read-out: Corn plant response rating (0 to 100 scale); for Corn plant response rating (crop injury, 0 = no effect, 100 = complete kill) at 31 g/ha: Postemergence, 31 g ai/ha, visual injury after approx. 10 d, 0 to 100 scale, 100 complete control
In short: as §1

[11] = system: giant foxtail (Setaria faberii); test: Test A postemergence; conditions: Setaria faberi, post-emergence, 240 h; for pest or weed control at 125 g/ha: 125 g ai/ha, postemergence, visual injury vs untreated controls after approx. 10 d, 0 = no effect, 100 = complete control, read-out: Foxtail, Giant plant response rating (0 to 100 scale); for pest or weed control at 31 g/ha: Postemergence, 31 g ai/ha, visual injury after approx. 10 d, 0 to 100 scale, 0 no effect, 100 complete control, read-out: Plant response rating, Foxtail, Giant
In short: as §1

[12] = system: pigweed (Amaranthus retroflexus); test: Test A postemergence; conditions: Amaranthus retroflexus, post-emergence, 240 h; for pest or weed control at 125 g/ha: 125 g ai/ha, postemergence, visual injury vs untreated controls after approx. 10 d, 0 = no effect, 100 = complete control, read-out: Pigweed plant response rating (0 to 100 scale); for pest or weed control at 31 g/ha: Postemergence, 31 g ai/ha, visual injury after approx. 10 d, 0 to 100 scale, 0 no effect, 100 complete control, read-out: Plant response rating, Pigweed
In short: as §1

[13] = system: ragweed (common ragweed, Ambrosia elatior); test: Test A postemergence; conditions: Ambrosia artemisiifolia, post-emergence, 240 h; for pest or weed control at 125 g/ha: 125 g ai/ha, postemergence, visual injury vs untreated controls after approx. 10 d, 0 = no effect, 100 = complete control, read-out: Ragweed plant response rating (0 to 100 scale); for pest or weed control at 31 g/ha: Postemergence, 31 g ai/ha, visual injury after approx. 10 d, 0 to 100 scale, 0 no effect, 100 complete control, read-out: Plant response rating, Ragweed
In short: as §1

[14] = system: ryegrass, Italian (Italian ryegrass, Lolium multiflorum); test: Test A postemergence; conditions: Lolium multiflorum, post-emergence, 240 h; for pest or weed control at 125 g/ha: 125 g ai/ha, postemergence, visual injury vs untreated controls after approx. 10 d, 0 = no effect, 100 = complete control, read-out: Ryegrass, Italian plant response rating (0 to 100 scale); for pest or weed control at 31 g/ha: Postemergence, 31 g ai/ha, visual injury after approx. 10 d, 0 to 100 scale, 0 no effect, 100 complete control, read-out: Plant response rating, Ryegrass, Italian
In short: as §1

[15] = system: wheat (Triticum aestivum); test: Test A postemergence; conditions: Triticum aestivum, post-emergence, 240 h; for plant injury at 125 g/ha: 125 g ai/ha, postemergence, visual injury vs untreated controls after approx. 10 d, 0 = no effect, 100 = complete control, read-out: Wheat plant response rating (0 to 100 scale); for plant injury at 31 g/ha: Postemergence, 31 g ai/ha, visual injury after approx. 10 d, 0 to 100 scale, 0 no effect, 100 complete control, read-out: Plant response rating, Wheat
In short: as §1

[16] = system: barnyardgrass (Echinochloa crus-galli); test: Test B flooded paddy test; conditions: Echinochloa crus-galli, 250 g ai/ha, Flood; 0 to 100 scale where 0 is no effect and 100 is complete control; read-out: Barnyardgrass plant response rating
In short: (§2)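 Plants at 2-leaf stage flooded to 3 cm above soil, with compounds applied directly to paddy water and that depth maintained. Plants kept in greenhouse 13–15 d. Visual rating versus controls on a 0 (no effect) to 100 (complete control) scale.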

[17] = system: ducksalad (Heteranthera limosa); test: Test B flooded paddy test; conditions: Heteranthera limosa, 250 g ai/ha, Flood; 0 to 100 scale where 0 is no effect and 100 is complete control; read-out: Ducksalad plant response rating
In short: as §2

rice (Oryra sativa) = test: Test B flooded paddy test; conditions: Oryza sativa, 250 g ai/ha, Flood; 0 to 100 scale where 0 is no effect and 100 is complete control; read-out: Rice plant response rating
In short: as §2

[18] = system: sedge, umbrella (small-flower umbrella sedge, Cyperus difformis); test: Test B flooded paddy test; conditions: Cyperus difformis, 250 g ai/ha, Flood; 0 to 100 scale where 0 is no effect and 100 is complete control; read-out: Sedge, Umbrella plant response rating
In short: as §2

SMILES | pest or weed control at 31 g/ha (Kochia (Kochia scoparia) [1]) [%] | pest or weed control at 125 g/ha (Kochia (Kochia scoparia) [1]) [%] | pest or weed control at 31 g/ha [2] [%] | pest or weed control at 125 g/ha [2] [%] | pest or weed control at 31 g/ha [3] [%] | pest or weed control at 125 g/ha [3] [%] | pest or weed control at 31 g/ha [4] [%] | pest or weed control at 125 g/ha [4] [%] | pest or weed control at 31 g/ha [5] [%] | pest or weed control at 125 g/ha [5] [%] | pest or weed control at 31 g/ha [6] [%] | pest or weed control at 125 g/ha [6] [%] | pest or weed control at 125 g/ha [7] [%] | pest or weed control at 31 g/ha [7] [%] | pest or weed control at 125 g/ha (Kochia (Kochia scoparia) [8]) [%] | pest or weed control at 31 g/ha (Kochia (Kochia scoparia) [8]) [%] | pest or weed control at 125 g/ha [9] [%] | pest or weed control at 31 g/ha [9] [%] | pest or weed control at 125 g/ha [10] [%] | pest or weed control at 31 g/ha [10] [%] | further results
COCOCc1ccccc1NC(=O)[C@H]1C(=O)N(C)C[C@@H]1c1cccc(C(F)(F)F)c1 (racemic) [Compound 1161] | 0 | 0 | 0 | 0 | 0 | 20 | 0 | 0 | 0 | 0 | 0 | 0 | 0 | 0 | 0 | 0 | 0 | 0 | 0 | 0 | plant injury at 125 g/ha (corn (Zea mays)): 0%; Corn plant response rating (crop injury, 0 = no effect, 100 = complete kill) at 31 g/ha (corn (Zea mays)): 0%; pest or weed control at 125 g/ha [11]: 0%; pest or weed control at 31 g/ha [11]: 0%; pest or weed control at 125 g/ha [12]: 0%; pest or weed control at 31 g/ha [12]: 0%; pest or weed control at 125 g/ha [13]: 0%; pest or weed control at 31 g/ha [13]: 0%; pest or weed control at 125 g/ha [14]: 0%; pest or weed control at 31 g/ha [14]: 0%; plant injury at 125 g/ha [15]: 0%; plant injury at 31 g/ha [15]: 0%; pest or weed control at 250 g/ha [16]: 0%; pest or weed control at 250 g/ha [17]: 0%; pest or weed control at 250 g/ha (rice (Oryra sativa)): 15%; pest or weed control at 250 g/ha [18]: 0%
CN1C[C@H](c2cccc([Si](C)(C)C)c2)[C@@H](C(=O)Nc2cccc(F)c2F)C1=O [Compound 1166] | 0 | 0 | 0 | 20 | 20 | 80 | 0 | 0 | 0 | 0 | 0 | 0 | 0 | 0 | 0 | 0 | 0 | 0 | 0 | 0 | plant injury at 125 g/ha (corn (Zea mays)): 0%; Corn plant response rating (crop injury, 0 = no effect, 100 = complete kill) at 31 g/ha (corn (Zea mays)): 0%; pest or weed control at 125 g/ha [11]: 20%; pest or weed control at 31 g/ha [11]: 0%; pest or weed control at 125 g/ha [12]: 0%; pest or weed control at 31 g/ha [12]: 0%; pest or weed control at 125 g/ha [13]: 0%; pest or weed control at 31 g/ha [13]: 0%; pest or weed control at 125 g/ha [14]: 0%; pest or weed control at 31 g/ha [14]: 0%; plant injury at 125 g/ha [15]: 0%; plant injury at 31 g/ha [15]: 0%; pest or weed control at 250 g/ha [16]: 40%; pest or weed control at 250 g/ha [17]: 30%; pest or weed control at 250 g/ha (rice (Oryra sativa)): 25%; pest or weed control at 250 g/ha [18]: 0%
